The source of these data is paper PMC9598367, “Discovery and Preliminary Structure-Activity Investigation of 3-Substituted-1H-imidazol-5-yl-1H-indoles with In Vitro Activity towards Methicillin-Resistant Staphylococcus aureus” (Antibiotics, 2022).

By melting point is commonly meant the temperature of the solid-liquid transition.

System in the first data set: not given
Assay: not given
Settings: not given
In the case of `Fc1cccc2c(-c3cncn3CCc3ccccc3)c[nH]c12` [Compound 52, 7-Fluoro-3-(1-phenethyl-1H-imidazol-5-yl)-1H-indole], the melting point fell in the range of 45 to 46 °C.

The molecule `Clc1cccc2[nH]cc(-c3cncn3CCc3ccccc3)c12` [Compound 53, 4-Chloro-3-(1-phenethyl-1H-imidazol-5-yl)-1H-indole] gave a melting point of 73 to 74 °C.

Take `Clc1cccc2c(-c3cncn3CCc3ccccc3)c[nH]c12` [Compound 54, 7-Chloro-3-(1-phenethyl-1H-imidazol-5-yl)-1H-indole]: the melting point is 47 to 48 °C.

In the case of `Brc1cccc2[nH]cc(-c3cncn3CCc3ccccc3)c12` [Compound 55, 4-Bromo-3-(1-phenethyl-1H-imidazol-5-yl)-1H-indole], the melting point fell in the range of 204 to 205 °C.

In turn, `COc1ccc2[nH]cc(-c3cncn3CCc3ccccc3)c2c1` [Compound 56, 5-Methoxy-3-(1-phenethyl-1H-imidazol-5-yl)-1H-indole] returned a melting point of 51 to 52 °C.

Molecule `COc1ccc(Cn2cncc2-c2c[nH]c3cccc(F)c23)cc1` [Compound 59, 4-Fluoro-3-(1-(4-methoxybenzyl)-1H-imidazol-5-yl)-1H-indole] displayed a melting point of 66 to 67 °C.

As to `COc1ccc(Cn2cncc2-c2c[nH]c3c(F)cccc23)cc1` [Compound 60, 7-Fluoro-3-(1-(4-methoxybenzyl)-1H-imidazol-5-yl)-1H-indole], the melting point fell in the range of 179 to 180 °C.

`COc1ccc(Cn2cncc2-c2c[nH]c3cccc(Cl)c23)cc1` [Compound 61, 4-Chloro-3-(1-(4-methoxybenzyl)-1H-imidazol-5-yl)-1H-indole] had a melting point of 74 to 75 °C.

In turn, `COc1ccc(Cn2cncc2-c2c[nH]c3c(Cl)cccc23)cc1` [Compound 62, 7-Chloro-3-(1-(4-methoxybenzyl)-1H-imidazol-5-yl)-1H-indole] had a melting point of 220 to 221 °C.

`COc1ccc(Cn2cncc2-c2c[nH]c3cccc(Br)c23)cc1` [Compound 63, 4-Bromo-3-(1-(4-methoxybenzyl)-1H-imidazol-5-yl)-1H-indole] registered a melting point of 92 to 93 °C.

The molecule `COc1ccc(Cn2cncc2-c2c[nH]c3ccc(OC)cc23)cc1` [Compound 64, 5-Methoxy-3-(1-(4-methoxybenzyl)-1H-imidazol-5-yl)-1H-indole] showed a melting point of 67 to 68 °C.

`COc1ccc(Cn2cncc2-c2c[nH]c3cc(OC)ccc23)cc1` [Compound 65, 6-Methoxy-3-(1-(4-methoxybenzyl)-1H-imidazol-5-yl)-1H-indole] showed a melting point of 65 to 66 °C.

`COc1ccc(CCn2cncc2-c2c[nH]c3cccc(F)c23)cc1` [Compound 66, 4-Fluoro-3-(1-(4-methoxyphenethyl)-1H-imidazol-5-yl)-1H-indole] showed a melting point of 56 to 57 °C.

In turn, `COc1ccc(CCn2cncc2-c2c[nH]c3c(F)cccc23)cc1` [Compound 67, 7-Fluoro-3-(1-(4-methoxyphenethyl)-1H-imidazol-5-yl)-1H-indole] registered a melting point of 175 to 176 °C.

The molecule `COc1ccc(CCn2cncc2-c2c[nH]c3cccc(Cl)c23)cc1` [Compound 68, 4-Chloro-3-(1-(4-methoxyphenethyl)-1H-imidazol-5-yl)-1H-indole] had a melting point of 76 to 77 °C.

For the molecule `COc1ccc(CCn2cncc2-c2c[nH]c3c(Cl)cccc23)cc1` [Compound 69, 7-Chloro-3-(1-(4-methoxyphenethyl)-1H-imidazol-5-yl)-1H-indole], the melting point is 59 to 60 °C.

`COc1ccc(CCn2cncc2-c2c[nH]c3cccc(Br)c23)cc1` [Compound 70, 4-Bromo-3-(1-(4-methoxyphenethyl)-1H-imidazol-5-yl)-1H-indole] showed a melting point of 83 to 84 °C.

`COc1ccc(CCn2cncc2-c2c[nH]c3ccc(OC)cc23)cc1` [Compound 71, 5-Methoxy-3-(1-(4-methoxyphenethyl)-1H-imidazol-5-yl)-1H-indole] showed a melting point of 48 to 49 °C.

`COc1ccc(CCn2cncc2-c2c[nH]c3cc(OC)ccc23)cc1` [Compound 72, 6-Methoxy-3-(1-(4-methoxyphenethyl)-1H-imidazol-5-yl)-1H-indole] yielded a melting point of 45 to 46 °C.

The molecule `Fc1cccc2[nH]cc(-c3cncn3Cc3c[nH]c4ccccc34)c12` [Compound 73, 3-(1-((1H-Indol-3-yl)methyl)-1H-imidazol-5-yl)-4-fluoro-1H-indole] gave a melting point of 164 to 165 °C.

`Fc1cccc2c(-c3cncn3Cc3c[nH]c4ccccc34)c[nH]c12` [Compound 74, 3-(1-((1H-Indol-3-yl)methyl)-1H-imidazol-5-yl)-7-fluoro-1H-indole] gave a melting point of 186 to 187 °C.

Molecule `Clc1cccc2[nH]cc(-c3cncn3Cc3c[nH]c4ccccc34)c12` [Compound 75, 3-(1-((1H-Indol-3-yl)methyl)-1H-imidazol-5-yl)-4-chloro-1H-indole] came in with a melting point of 195 to 196 °C.

Molecule `Clc1ccc2[nH]cc(-c3cncn3Cc3c[nH]c4ccccc34)c2c1` [Compound 76, 3-(1-((1H-Indol-3-yl)methyl)-1H-imidazol-5-yl)-5-chloro-1H-indole] displayed a melting point of 107 to 108 °C.

Turning to `Clc1cccc2c(-c3cncn3Cc3c[nH]c4ccccc34)c[nH]c12` [Compound 77, 3-(1-((1H-Indol-3-yl)methyl)-1H-imidazol-5-yl)-7-chloro-1H-indole], the melting point lay in the range of 165 to 166 °C.

As to `Brc1cccc2[nH]cc(-c3cncn3Cc3c[nH]c4ccccc34)c12` [Compound 78, 3-(1-((1H-Indol-3-yl)methyl)-1H-imidazol-5-yl)-4-bromo-1H-indole], the melting point lay in the range of 201 to 202 °C.

`COc1ccc2[nH]cc(-c3cncn3Cc3c[nH]c4ccccc34)c2c1` [Compound 79, 3-(1-((1H-Indol-3-yl)methyl)-1H-imidazol-5-yl)-5-methoxy-1H-indole]: the melting point lay in the range of 97 to 98 °C.

As to `COc1ccc2c(-c3cncn3Cc3c[nH]c4ccccc34)c[nH]c2c1` [Compound 80, 3-(1-((1H-Indol-3-yl)methyl)-1H-imidazol-5-yl)-6-methoxy-1H-indole], the melting point lay within 95 to 96 °C.

`Fc1cccc2[nH]cc(-c3cncn3CCc3c[nH]c4ccccc34)c12` [Compound 81, 3-(1-(2-(1H-Indol-3-yl)ethyl)-1H-imidazol-5-yl)-4-fluoro-1H-indole] registered a melting point of more than 230 °C.

The molecule `Fc1cccc2c(-c3cncn3CCc3c[nH]c4ccccc34)c[nH]c12` [Compound 82, 3-(1-(2-(1H-Indol-3-yl)ethyl)-1H-imidazol-5-yl)-7-fluoro-1H-indole] came in with a melting point of more than 230 °C.

In the case of `Clc1ccc2[nH]cc(-c3cncn3CCc3c[nH]c4ccccc34)c2c1` [Compound 84, 3-(1-(2-(1H-Indol-3-yl)ethyl)-1H-imidazol-5-yl)-5-chloro-1H-indole], the melting point fell in the range of 70 to 71 °C.

Regarding `Brc1cccc2[nH]cc(-c3cncn3CCc3c[nH]c4ccccc34)c12` [Compound 86, 3-(1-(2-(1H-Indol-3-yl)ethyl)-1H-imidazol-5-yl)-4-bromo-1H-indole], the melting point is more than 230 °C.

As for `COc1ccc2[nH]cc(-c3cncn3CCc3c[nH]c4ccccc34)c2c1` [Compound 87, 3-(1-(2-(1H-Indol-3-yl)ethyl)-1H-imidazol-5-yl)-5-methoxy-1H-indole], the melting point fell in the range of 152 to 153 °C.

As for `COc1ccc2c(-c3cncn3CCc3c[nH]c4ccccc34)c[nH]c2c1` [Compound 88, 3-(1-(2-(1H-Indol-3-yl)ethyl)-1H-imidazol-5-yl)-6-methoxy-1H-indole], the melting point lay in the range of 81 to 82 °C.

As to `CCCCCn1cncc1-c1c[nH]c2c(Cl)cccc12` [Compound 93, 7-Chloro-3-(1-pentyl-1H-imidazol-5-yl)-1H-indole], the melting point was in the range of 122 to 123 °C.

`CCCCCn1cncc1-c1c[nH]c2cccc(Br)c12` [Compound 94, 4-Bromo-3-(1-pentyl-1H-imidazol-5-yl)-1H-indole] had a melting point of 207 to 208 °C.

`c1ccc(Cn2cncc2-c2ccccc2)cc1` [Compound 103, 1-Benzyl-5-phenyl-1H-imidazole] returned a melting point of 99 to 100 °C.

In the case of `COc1ccc(-c2cncn2Cc2ccccc2)cc1` [Compound 104, 1-Benzyl-5-(4-methoxyphenyl)-1H-imidazole], the melting point lay in the range of 83 to 84 °C.

Consider `COc1ccc(-c2cncn2Cc2c[nH]c3ccccc23)cc1` [Compound 112, 3-((5-(4-Methoxyphenyl)-1H-imidazol-1-yl)methyl)-1H-indole], for which the melting point is 152 to 153 °C.

The molecule `c1ccc(-c2cncn2CCc2c[nH]c3ccccc23)cc1` [Compound 113, 3-(2-(5-Phenyl-1H-imidazol-1-yl)ethyl)-1H-indole] showed a melting point of 155 to 156 °C.

In the case of `COc1ccc(-c2cncn2CCc2c[nH]c3ccccc23)cc1` [Compound 114, 3-(2-(5-(4-Methoxyphenyl)-1H-imidazol-1-yl)ethyl)-1H-indole], the melting point was 169 to 170 °C.

For another data set, the system named is human red blood cells. Kind of data set: Hemolytic assay. Type of data set: cell-based. The conditions noted are these: concentration at 10% hemolytic activity on human red blood cells; mean (n = 2). How it is done:
Human whole blood was washed three times with 3 volumes of 0.9% NaCl and then resuspended in same to a concentration of 0.5 × 10^8 cells/mL, as determined by manual cell count in a Neubauer hemocytometer. The washed cells were then added to the 384-well compound-containing plates for a final volume of 50 μL. After a 10 min shake on a plate shaker the plates were then incubated for 1 h at 37 °C. After incubation, the plates were centrifuged at 1000 g for 10 min to pellet cells and debris, 25 μL of the supernatant was then transferred to a polystyrene 384-well assay plate. Hemolysis was determined by measuring the supernatant absorbance at […] (OD405). The absorbance was measured using a Tecan M1000 Pro monochromator plate reader. HC10 and HC50 (concentration at 10% and 50% hemolysis, respectively) were calculated by curve fitting the inhibition values vs. log(concentration) using a sigmoidal dose–response function with variable fitting values for top, bottom and slope.
Regarding Melittin [reference compound], the “HC10” value is listed as 2.7 µg/mL.
